# In patent US20220168430A1, “THERAPEUTIC METHODS FOR TREATING HEPATITIS B” (priority 2019, published 2022):
# pEC50, pIC50: −log10 of the molar value. Read-outs that look alike come from different tables or passages of the source.
# Legend:
# HBV genome = assay: IC 50 of HBV siRNA duplexes (Table A); design: species or system Hepatitis B virus; settings: siRNA duplex
# HBV DNA = HBV DNA in culture supernatants of HBV-infected PHH by qPCR, single agents and double combinations (Examples 1-4); assay type: cell-based, HBV genotype D; primary human hepatocytes; settings: Hepatitis B virus; for inhibition at 0.05 µM: (VII) 0.05 μM alone; for inhibition at 0.15 µM: (VII) 0.15 μM alone; for inhibition at 0.44 µM: (VII) 0.44 μM alone; for inhibition at 1.33 µM: (VII) 1.33 μM alone; for inhibition at 4 µM: (VII) 4.00 μM alone; for pEC50: HBV DNA endpoint, PHH, determined in an earlier separate experiment, read-out: EC50; for inhibition at 0.005 µM / inhibition at 0.015 µM / inhibition at 0.044 µM / inhibition at 0.133 µM / inhibition at 0.4 µM: HBV DNA, (V) 0.00 μg/mL; for inhibition at 0.005 µM: (VI) 0.005 μM; for inhibition at 0.015 µM: (VI) 0.015 μM; for inhibition at 0.044 µM: (VI) 0.044 μM; for inhibition at 0.133 µM: (VI) 0.133 μM; for inhibition at 0.4 µM: (VI) 0.400 μM
# Protocol: (§1) The day PHH seeding date was defined as day 0.
# (§2) The PHH were infected with 400 HBV GE/cell of HBV genotype D type HBV on day 1.
# (§3) The test articles were further diluted with the culture medium to the final test concentrations.
# (§4) All the test articles were further diluted 100 times with the culture medium. The final concentration of DMSO in the culture medium was […].
# (§5) The compounds were tested at 7 concentrations, 3-fold dilution, in triplicate.
# (§6) Four two-way combinations were performed on a 5×5 matrix, in triplicate plates. Transfection reagent was present in all wells. The culture medium containing the articles were refreshed every 1 or 2 days.
# DNA in the culture supernatants harvested on days 8 was isolated with QIAamp 96 DNA Blood Kit (Qiagen-51162). For each sample, 100 μl of each culture supernatant was used to extract DNA. The DNA was eluted with 180 μl of AE. HBV DNA in the culture supernatants was quantified by quatitative PCR using primers and probes outlined in Table 3. Percent inhibition of HBV DNA was calculated with the formula below:
# % Inh. HBV DNA=[1−value of sample/AVG. value of Medium control]×100.
# (§7) Results of double combination studies were analyzed using MacSynergy II software (Prichard and Shipman, 1992).
# HBsAg = assay: microbe, parasite or virus in culture; assay type: cell-based, HBV genotype D; primary human hepatocytes; settings: Hepatitis B virus; for inhibition at 0.05 µM: (VII) 0.05 μM alone; for inhibition at 0.15 µM: (VII) 0.15 μM alone; for inhibition at 0.44 µM: (VII) 0.44 μM alone; for inhibition at 1.33 µM: (VII) 1.33 μM alone; for inhibition at 4 µM: (VII) 4.00 μM alone; for inhibition at 0.005 µM / inhibition at 0.015 µM / inhibition at 0.044 µM / inhibition at 0.133 µM / inhibition at 0.4 µM: read-out: AVERAGE % INHIBITION, HBsAg, (V) 0.00 μg/mL; for inhibition at 0.005 µM: (VI) 0.005 μM; for inhibition at 0.015 µM: (VI) 0.015 μM; for inhibition at 0.044 µM: (VI) 0.044 μM; for inhibition at 0.133 µM: (VI) 0.133 μM; for inhibition at 0.4 µM: (VI) 0.400 μM
# Protocol: as §1, §2, §3, §4, §5, §6
# HBsAg in the culture supernatants harvested on days 8 was measured using the HBsAg/ELISA kit (Autobio) according to the manual. The samples were diluted with PBS to get the signal in the range of the standard curve. Percent inhibition of HBsAg was calculated with the formula below:
# % Inh. HBsAg=[1−HBsAg quantity of sample/[…] of DMSO control]×100
# as §7
# [1] = read-out: AVERAGE % INHIBITION, Exp 1
# [2] = read-out: AVERAGE % INHIBITION, Exp 2
compound,measurement,setting,value
"3m: ""double stranded siRNA molecules selected from the group consisting of 1m, 2m, 3m ... 15m"" (sense CCGUGUGCACUUCGCUUCAUU; antisense UUGGCACACGUGAAGCGAAGU; chemistry not fully specified) [Compound 3m]",pIC50,HBV genome,10.22
"12m: ""double stranded siRNA molecules selected from the group consisting of 1m, 2m, 3m ... 15m"" (sense GCCGAUCCAUACUGCGGAAUU; antisense UUCGGCUAGGUAUGACGCCUU; chemistry not fully specified; one strand is listed 3' to 5') [Compound 12m]",pIC50,HBV genome,9.80
"13m: ""double stranded siRNA molecules selected from the group consisting of 1m, 2m, 3m ... 15m"" (sense GCCGAUCCAUACUGCGGAAUU; antisense UUCGGCUAGGUAUGACGCCUU; chemistry not fully specified; one strand is listed 3' to 5') [Compound 13m]",pIC50,HBV genome,9.70
"4m: ""double stranded siRNA molecules selected from the group consisting of 1m, 2m, 3m ... 15m"" (sense GCUCAGUUUACUAGUGCCAUU; antisense UUCGAGUCAAAUGAUCACGGU; chemistry not fully specified; one strand is listed 3' to 5') [Compound 4m]",pIC50,HBV genome,9.51
"8m: ""double stranded siRNA molecules selected from the group consisting of 1m, 2m, 3m ... 15m"" (sense GCUCAGUUUACUAGUGCCAUU; antisense UUCGAGUCAAAUGAUCACGGU; chemistry not fully specified; one strand is listed 3' to 5') [Compound 8m]",pIC50,HBV genome,9.62
"10m: ""double stranded siRNA molecules selected from the group consisting of 1m, 2m, 3m ... 15m"" (sense GCCGAUCCAUACUGCGGAAUU; antisense UUCGGCUAGGUAUGACGCCUU; chemistry not fully specified; one strand is listed 3' to 5') [Compound 10m]",pIC50,HBV genome,9.47
"9m: ""double stranded siRNA molecules selected from the group consisting of 1m, 2m, 3m ... 15m"" (sense AGGUAUGUUGCCCGUUUGUUU; antisense UUUCCAUACAACGGGCAAACA; chemistry not fully specified; one strand is listed 3' to 5') [Compound 9m]",pIC50,HBV genome,9.89
"1m: ""double stranded siRNA molecules selected from the group consisting of 1m, 2m, 3m ... 15m"" (sense AGGUAUGUUGCCCGUUUGUUU; antisense UUUCCAUACAACGGGCAAACA; chemistry not fully specified; one strand is listed 3' to 5') [Compound 1m]",pIC50,HBV genome,8.84
"2m: ""double stranded siRNA molecules selected from the group consisting of 1m, 2m, 3m ... 15m"" (sense GCUCAGUUUACUAGUGCCAUU; antisense UUCGAGUCAAAUGAUCACGGU; chemistry not fully specified; one strand is listed 3' to 5') [Compound 2m]",pIC50,HBV genome,9.43
"14m: ""double stranded siRNA molecules selected from the group consisting of 1m, 2m, 3m ... 15m"" (sense GCUCAGUUUACUAGUGCCAUU; antisense UUCGAGUCAAAUGAUCACGGU; chemistry not fully specified; one strand is listed 3' to 5') [Compound 14m]",pIC50,HBV genome,9.80
"11m: ""double stranded siRNA molecules selected from the group consisting of 1m, 2m, 3m ... 15m"" (sense GCCGAUCCAUACUGCGGAAUU; antisense UUCGGCUAGGUAUGACGCCUU; chemistry not fully specified; one strand is listed 3' to 5') [Compound 11m]",pIC50,HBV genome,9.51
Cn1cnc(COC(=O)N[C@H]2CCc3c(C(=O)Nc4ccc(F)c(Cl)c4)ccc(F)c32)n1 [(VII)],inhibition at 0.05 µM,HBV DNA; Exp 1,-22.6%
same,inhibition at 0.15 µM,HBV DNA; Exp 1,28.7%
same,inhibition at 0.44 µM,HBV DNA; Exp 1,50%
same,inhibition at 1.33 µM,HBV DNA; Exp 1,53.9%
same,inhibition at 4 µM,HBV DNA; Exp 1,56.2%
same,inhibition at 0.05 µM,HBV DNA; Exp 2,-0.21%
same,inhibition at 0.15 µM,HBV DNA; Exp 2,16.1%
same,inhibition at 0.44 µM,HBV DNA; Exp 2,31.2%
same,inhibition at 1.33 µM,HBV DNA; Exp 2,32.9%
same,inhibition at 4 µM,HBV DNA; Exp 2,41.3%
same,pEC50,HBV DNA,7.12
same,pEC50,HBsAg,< 5.40
same,inhibition at 0.05 µM,HBsAg; [1],-14.1%
same,inhibition at 0.15 µM,HBsAg; [1],-5.43%
same,inhibition at 0.44 µM,HBsAg; [1],-9.81%
same,inhibition at 1.33 µM,HBsAg; [1],29.9%
same,inhibition at 4 µM,HBsAg; [1],49.6%
same,inhibition at 0.05 µM,HBsAg; [2],-3.42%
same,inhibition at 0.15 µM,HBsAg; [2],-8.51%
same,inhibition at 0.44 µM,HBsAg; [2],1.73%
same,inhibition at 1.33 µM,HBsAg; [2],29.4%
same,inhibition at 4 µM,HBsAg; [2],48.7%
COCCCOc1cc2c(nc1OC)-c1cc(=O)c(C(=O)O)cn1[C@H](C(C)C)C2 [(VI)],inhibition at 0.005 µM,HBV DNA; Experiment 1,0.64%
same,inhibition at 0.015 µM,HBV DNA; Experiment 1,6.77%
same,inhibition at 0.044 µM,HBV DNA; Experiment 1,10.9%
same,inhibition at 0.133 µM,HBV DNA; Experiment 1,26.7%
same,inhibition at 0.4 µM,HBV DNA; Experiment 1,21.8%
same,inhibition at 0.005 µM,HBV DNA; Experiment 2,7.21%
same,inhibition at 0.015 µM,HBV DNA; Experiment 2,13.7%
same,inhibition at 0.044 µM,HBV DNA; Experiment 2,19.3%
same,inhibition at 0.133 µM,HBV DNA; Experiment 2,12.8%
same,inhibition at 0.4 µM,HBV DNA; Experiment 2,27.1%
same,pEC50,HBV DNA,8.22
same,pEC50,HBsAg,7.89
same,inhibition at 0.005 µM,HBsAg; Experiment 1,19.1%
same,inhibition at 0.015 µM,HBsAg; Experiment 1,43.1%
same,inhibition at 0.044 µM,HBsAg; Experiment 1,62.2%
same,inhibition at 0.133 µM,HBsAg; Experiment 1,74%
same,inhibition at 0.4 µM,HBsAg; Experiment 1,81%
same,inhibition at 0.005 µM,HBsAg; Experiment 2,11.9%
same,inhibition at 0.015 µM,HBsAg; Experiment 2,38.1%
same,inhibition at 0.044 µM,HBsAg; Experiment 2,56.7%
same,inhibition at 0.133 µM,HBsAg; Experiment 2,69.7%
same,inhibition at 0.4 µM,HBsAg; Experiment 2,77.4%
